The values that follow come from patent publication US7445897B2, “Sequence variants of multi-drug resistance genes, MDR1 and MRP1, and methods for assessment of drug penetration and disposition” (University of Washington, priority 2004, dated 2008).

Read-outs that look alike come from different tables or passages of the source.

Data set [1] concerns HEK negative control cells. Description: Cytotoxic drug sensitivity assay (MTS). The note with it: HEK Control; 72hours, MTS; read-out: EC50 (Mean ± S.D.). Type of data set: cell-based, human.
The subject of the next data set is HEK - MDR1 G1199T cells. As to the kind of experiment: Cytotoxic drug sensitivity assay (MTS). Type of data set: cell-based, human. Conditions: HEK MDR1 G1199T; 72hours, MTS; read-out: EC50 (Mean ± S.D.).
The test system of the next data set is HEK - MDR1 WT cells. Description: Cytotoxic drug sensitivity assay (MTS). Format: cell-based, human. The note with it: HEK MDR1 WT; 72hours, MTS; read-out: EC50 (Mean ± S.D.).
In data set [2] the test system is LLC-PK1 control cells. As to the kind of experiment: Intracellular uptake of HIV protease inhibitors. Format: in vitro ADME, porcine.
Data set [3] addresses MDR1-wt in recombinant LLC-PK1 cells (Homo sapiens, UniProt P08183, G185V/S893A).
The target of the next data set is MDR1 (wild type) (Homo sapiens, UniProt P08183, G185V/S893A). As to the kind of experiment: in vitro.
MDR1 (wild type), sequence (P08183 whole entry G185V/S893A): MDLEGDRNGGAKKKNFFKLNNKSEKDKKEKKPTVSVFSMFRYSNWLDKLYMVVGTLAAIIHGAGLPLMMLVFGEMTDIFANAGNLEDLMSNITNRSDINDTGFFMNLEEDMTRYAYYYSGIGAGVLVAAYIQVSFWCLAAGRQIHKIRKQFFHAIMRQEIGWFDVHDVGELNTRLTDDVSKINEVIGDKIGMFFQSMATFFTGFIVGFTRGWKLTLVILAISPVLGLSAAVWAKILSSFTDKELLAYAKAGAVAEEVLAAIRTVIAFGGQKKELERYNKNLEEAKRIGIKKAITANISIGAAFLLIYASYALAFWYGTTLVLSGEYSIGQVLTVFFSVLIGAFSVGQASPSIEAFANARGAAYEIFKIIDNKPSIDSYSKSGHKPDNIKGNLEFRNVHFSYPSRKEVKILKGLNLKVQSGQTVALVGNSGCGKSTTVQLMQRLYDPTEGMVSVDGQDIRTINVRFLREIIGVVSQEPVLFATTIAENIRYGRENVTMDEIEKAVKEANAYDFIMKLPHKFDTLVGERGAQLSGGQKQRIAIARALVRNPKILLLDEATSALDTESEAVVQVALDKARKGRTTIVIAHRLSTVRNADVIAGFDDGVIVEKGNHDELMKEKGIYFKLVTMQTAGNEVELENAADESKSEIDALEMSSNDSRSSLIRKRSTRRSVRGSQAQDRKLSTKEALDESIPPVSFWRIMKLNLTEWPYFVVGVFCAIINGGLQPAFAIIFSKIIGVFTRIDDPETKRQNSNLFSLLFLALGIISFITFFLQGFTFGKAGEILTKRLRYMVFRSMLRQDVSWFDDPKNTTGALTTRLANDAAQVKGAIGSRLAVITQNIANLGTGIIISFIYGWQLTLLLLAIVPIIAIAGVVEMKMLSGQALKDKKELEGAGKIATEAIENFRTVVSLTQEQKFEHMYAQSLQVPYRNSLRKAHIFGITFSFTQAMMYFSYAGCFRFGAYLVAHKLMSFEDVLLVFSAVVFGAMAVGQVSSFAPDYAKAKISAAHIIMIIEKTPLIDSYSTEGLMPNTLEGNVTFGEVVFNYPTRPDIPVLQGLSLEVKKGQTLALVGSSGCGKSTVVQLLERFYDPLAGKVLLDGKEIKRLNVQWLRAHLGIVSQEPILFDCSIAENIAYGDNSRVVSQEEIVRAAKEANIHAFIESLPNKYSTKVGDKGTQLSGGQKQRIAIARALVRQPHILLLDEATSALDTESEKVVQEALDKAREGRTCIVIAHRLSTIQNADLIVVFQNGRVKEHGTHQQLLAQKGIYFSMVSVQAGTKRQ
For data set [4], the system named is LLC-PK1 control cells.
For data set [5], the target named is MDR1-1199A in recombinant LLC-PK1 cells (Homo sapiens, UniProt P08183, G185V/S400N/S893A).
MDR1-1199A in recombinant LLC-PK1 cells, sequence (P08183 whole entry G185V/S400N/S893A): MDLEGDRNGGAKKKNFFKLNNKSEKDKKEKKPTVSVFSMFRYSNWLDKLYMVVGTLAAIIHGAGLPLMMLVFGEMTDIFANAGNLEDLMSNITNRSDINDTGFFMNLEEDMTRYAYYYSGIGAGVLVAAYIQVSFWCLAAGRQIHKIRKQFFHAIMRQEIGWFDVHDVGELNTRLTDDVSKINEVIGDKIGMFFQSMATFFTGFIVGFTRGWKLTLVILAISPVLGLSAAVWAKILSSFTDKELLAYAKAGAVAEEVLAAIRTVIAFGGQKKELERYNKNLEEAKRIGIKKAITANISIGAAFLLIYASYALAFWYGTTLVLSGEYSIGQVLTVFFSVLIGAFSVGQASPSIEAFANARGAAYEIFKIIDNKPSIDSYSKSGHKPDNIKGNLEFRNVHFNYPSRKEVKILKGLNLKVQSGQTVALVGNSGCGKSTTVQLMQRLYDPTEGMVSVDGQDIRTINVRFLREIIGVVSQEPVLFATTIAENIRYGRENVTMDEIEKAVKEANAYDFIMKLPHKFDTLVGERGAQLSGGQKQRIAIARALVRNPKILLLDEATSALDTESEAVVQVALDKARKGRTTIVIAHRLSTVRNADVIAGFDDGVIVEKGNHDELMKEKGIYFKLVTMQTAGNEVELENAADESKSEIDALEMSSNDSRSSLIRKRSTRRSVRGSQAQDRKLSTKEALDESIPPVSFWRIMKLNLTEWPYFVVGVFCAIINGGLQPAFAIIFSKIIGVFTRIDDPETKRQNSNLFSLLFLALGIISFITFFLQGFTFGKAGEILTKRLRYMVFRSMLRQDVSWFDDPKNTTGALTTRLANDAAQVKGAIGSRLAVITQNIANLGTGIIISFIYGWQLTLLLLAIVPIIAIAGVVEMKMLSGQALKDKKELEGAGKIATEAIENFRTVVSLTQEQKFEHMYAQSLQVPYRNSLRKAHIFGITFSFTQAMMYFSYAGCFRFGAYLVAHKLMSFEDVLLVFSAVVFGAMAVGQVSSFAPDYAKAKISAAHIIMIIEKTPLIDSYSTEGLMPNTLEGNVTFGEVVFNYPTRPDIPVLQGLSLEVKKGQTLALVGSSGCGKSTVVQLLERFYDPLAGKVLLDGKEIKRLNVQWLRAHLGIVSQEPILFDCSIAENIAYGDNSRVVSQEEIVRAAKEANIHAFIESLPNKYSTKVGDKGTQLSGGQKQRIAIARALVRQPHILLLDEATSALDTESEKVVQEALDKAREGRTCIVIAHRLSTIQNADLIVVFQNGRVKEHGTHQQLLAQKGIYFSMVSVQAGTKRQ
A further data set addresses MDR1 (1199A variant) (Homo sapiens, UniProt P08183, G185V/S400N/S893A). Description: Intracellular uptake of HIV protease inhibitors. Conditions: recombinant LLC-PK1 cells expressing MDR1-1199A.
The test system of data set [6] is P-gp (MDR11199, G1199A) in recombinant LLC-PK1 cells. Conditions: human, LLC-PK1.
For data set [7], the system named is Pgp (MDR1 and 1199 variants) in recombinant HEK cells. Description: Doxorubicin intracellular accumulation in recombinant HEK cells. Format: cell-based, human. Conditions: recombinant HEK cells expressing MDR1, any variant.
Procedure: Cells were washed with ice-cold PBS, trypsinized, and lysed in 0.5% deoxycholic acid. To precipitate the proteins tricholoracetic acid was added to 5% and the cell lysates were incubated for 30 min at 4° C. and centrifuged at 20,000 g.
The target of data set [8] is P-gp (MDR11199, G1199A) in recombinant LLC-PK1 cells (Homo sapiens, UniProt P08183, S400N).
P-gp (MDR11199, G1199A) in recombinant LLC-PK1 cells (Homo sapiens, UniProt P08183, S400N), sequence (P08183 whole entry S400N): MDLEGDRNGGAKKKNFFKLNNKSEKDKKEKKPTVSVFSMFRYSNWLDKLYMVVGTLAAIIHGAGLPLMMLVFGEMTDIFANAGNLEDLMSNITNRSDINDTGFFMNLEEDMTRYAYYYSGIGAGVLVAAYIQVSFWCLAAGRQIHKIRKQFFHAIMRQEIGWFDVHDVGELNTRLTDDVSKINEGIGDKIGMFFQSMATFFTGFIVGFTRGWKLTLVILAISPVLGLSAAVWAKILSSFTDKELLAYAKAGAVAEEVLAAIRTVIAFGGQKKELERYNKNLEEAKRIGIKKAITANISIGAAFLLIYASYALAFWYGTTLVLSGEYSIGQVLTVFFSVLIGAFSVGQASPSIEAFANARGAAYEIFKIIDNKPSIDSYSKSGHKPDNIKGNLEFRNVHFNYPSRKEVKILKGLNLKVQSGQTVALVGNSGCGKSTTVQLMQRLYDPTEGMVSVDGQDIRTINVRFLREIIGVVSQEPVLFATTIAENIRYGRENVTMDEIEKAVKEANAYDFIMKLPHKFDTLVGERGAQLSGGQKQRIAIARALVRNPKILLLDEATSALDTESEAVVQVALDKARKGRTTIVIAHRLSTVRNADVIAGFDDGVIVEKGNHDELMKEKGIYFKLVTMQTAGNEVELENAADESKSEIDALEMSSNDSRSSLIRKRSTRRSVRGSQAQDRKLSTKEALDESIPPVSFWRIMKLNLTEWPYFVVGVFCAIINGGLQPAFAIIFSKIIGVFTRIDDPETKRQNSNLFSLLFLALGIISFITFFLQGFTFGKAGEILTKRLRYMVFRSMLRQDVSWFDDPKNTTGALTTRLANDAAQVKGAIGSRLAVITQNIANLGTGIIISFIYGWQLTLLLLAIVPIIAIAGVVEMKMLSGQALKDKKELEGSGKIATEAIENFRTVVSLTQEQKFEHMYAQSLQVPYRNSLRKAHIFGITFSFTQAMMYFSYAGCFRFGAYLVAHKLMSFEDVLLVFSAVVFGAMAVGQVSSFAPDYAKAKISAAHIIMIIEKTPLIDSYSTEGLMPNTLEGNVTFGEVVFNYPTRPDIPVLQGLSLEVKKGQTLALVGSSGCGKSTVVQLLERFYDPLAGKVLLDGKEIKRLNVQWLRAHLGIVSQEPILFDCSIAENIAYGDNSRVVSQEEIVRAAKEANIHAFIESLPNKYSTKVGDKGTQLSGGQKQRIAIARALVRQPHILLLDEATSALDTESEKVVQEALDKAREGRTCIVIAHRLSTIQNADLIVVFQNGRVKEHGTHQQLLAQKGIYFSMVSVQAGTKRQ
For data set [9] the following is noted: healthy human subjects; Greiner et al. 1999; cited from earlier work.
[10] abbreviates: protease inhibitor + GF120918 (1 μM).

MDR1-wt in recombinant LLC-PK1 cells, sequence (P08183 whole entry G185V/S893A): as the sequence (P08183 whole entry G185V/S893A) above

By EC50 is commonly meant the concentration that produces a half-maximal response. For ivermectin, the EC50 in [1] amounted to 4.1 ± 0.21 µM; in the data set on HEK - MDR1 G1199T cells it was 3.84 ± 0.307 µM; in the data set on HEK - MDR1 G1199A cells, 4.04 ± 0.0776 µM; with HEK - MDR1 WT cells it was 3.809 ± 0.0273 µM.
The Km is the substrate concentration at which the rate is half of its maximum. As for `CC(C)(C)NC(=O)[C@@H]1C[C@@H]2CCCC[C@@H]2CN1C[C@@H](O)[C@H](Cc1ccccc1)NC(=O)[C@H](CC(N)=O)NC(=O)c1ccc2ccccc2n1` [saquinavir], the Km in the data set with LLC-PK1 control cells [2] was 2 µM; at MDR1 (wild type) it was 18 µM; on MDR1 (1199A variant), 14.5 µM. Moreover, the Vmax came to 1.47 pmole/min*10^6 cells in the data set with LLC-PK1 control cells [2], 1.13 pmole/min*10^6 cells in data set [3] and 1.00 pmole/min*10^6 cells in data set [5]. For the same molecule, the “Rate of transfer dQ/dt ± s.d., A → B” value is 3.48 ± 0.57 with LLC-PK1 control cells [4] (setting [10]) and 3.02 ± 0.35 in the data set on LLC-PK1 control cells [4] (protease inhibitor alone, 5 μM). For the same molecule, the “Rate of transfer dQ/dt ± s.d., B → A” value stood at 7.36 ± 0.60 with LLC-PK1 control cells [4] (setting [10]) and 8.03 ± 0.51 in the data set with LLC-PK1 control cells [4] (protease inhibitor alone, 5 μM). Further, in data set [6], the “decrease in apical-to-basolateral flux in MDR11199 cells compared to MDR1wt cells” value stood at 2.3 fold.
Take `COc1cc2c(cc1OC)CN(CCc1ccc(NC(=O)c3cccc4c(=O)c5cccc(OC)c5[nH]c34)cc1)CC2` [GF120918, N-(4-[2-(1,2,3,4-tetrahydro-6,7-dimethoxy-2-isoquinolinyl)ethyl]-phenyl)-9,10-dihydro-5-methoxy-9-oxo-4-acridine carboxamide]: in data set [7], the “effect of inhibitor on reduction in intracellular doxorubicin concentration” value is “can be reversed”. The “effect of inhibitor on P-gp efflux of protease inhibitors” value in [8] was “effectively blocked P-gp activity”.
For the molecule `C[C@H]1O[C@@H](O[C@H]2[C@@H](O)C[C@H](O[C@H]3[C@@H](O)C[C@H](O[C@H]4CC[C@@]5(C)[C@H](CC[C@@H]6[C@@H]5C[C@@H](O)[C@]5(C)[C@@H](C7=CC(=O)OC7)CC[C@]65O)C4)O[C@@H]3C)O[C@@H]2C)C[C@H](O)[C@@H]1O` [digoxin], in data set [9], the “range in the oral bioavailability from inter-individual variation in intestinal MDR1 expression” value is given as 7 fold.
